Results on 24 molecules are retold here after article PMC6556873, “Rapid Covalent-Probe Discovery by Electrophile-Fragment Screening” (Journal of the American Chemical Society, 2019).

Series [1] can be described thus: in vitro. Particulars: human, ccd841 cells. Also noted: species or system HB2, HEK293.
Series [2] is described as follows: in vitro. Details: species or system CCD841, HEK293. Particulars: human, hb2 cells, read-out: HB-2 Cells Viability (%).
For series [3], the target named is T1, OTUB2 (OTUB2A) (Homo sapiens, UniProt Q96DC9).
T1 construct: full length residues 1-234, E. coli BL21(DE3)-R3, His tag removed by TEV, construct 27312 Da
T1 sequence (Q96DC9 1-234): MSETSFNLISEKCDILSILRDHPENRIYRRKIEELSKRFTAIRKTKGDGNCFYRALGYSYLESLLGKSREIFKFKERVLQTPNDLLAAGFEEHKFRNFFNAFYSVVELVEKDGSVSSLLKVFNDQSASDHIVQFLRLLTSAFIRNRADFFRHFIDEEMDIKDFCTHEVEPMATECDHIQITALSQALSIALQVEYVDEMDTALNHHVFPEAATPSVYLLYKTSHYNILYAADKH
Details: Intact protein LC/MS covalent labelling, fragments in pools of five, 200 uM each, 4 °C. Particulars: 24 h, 4 °C, pool of five; 200 µM; covalent.

Series [4] addresses T2, BSA (Bos taurus, UniProt P02769).
T2 construct: gene ALB
Also noted: Intact protein LC/MS covalent labelling, fragments in pools of five, 200 uM each, 4 °C. As to conditions: 24 h, 4 °C, pool of five; 200 µM; covalent.

For series [5], the target named is T3, PCAF (Homo sapiens, UniProt Q92831).
T3 construct: gene KAT2B
T3 sequence (Q92831 whole entry): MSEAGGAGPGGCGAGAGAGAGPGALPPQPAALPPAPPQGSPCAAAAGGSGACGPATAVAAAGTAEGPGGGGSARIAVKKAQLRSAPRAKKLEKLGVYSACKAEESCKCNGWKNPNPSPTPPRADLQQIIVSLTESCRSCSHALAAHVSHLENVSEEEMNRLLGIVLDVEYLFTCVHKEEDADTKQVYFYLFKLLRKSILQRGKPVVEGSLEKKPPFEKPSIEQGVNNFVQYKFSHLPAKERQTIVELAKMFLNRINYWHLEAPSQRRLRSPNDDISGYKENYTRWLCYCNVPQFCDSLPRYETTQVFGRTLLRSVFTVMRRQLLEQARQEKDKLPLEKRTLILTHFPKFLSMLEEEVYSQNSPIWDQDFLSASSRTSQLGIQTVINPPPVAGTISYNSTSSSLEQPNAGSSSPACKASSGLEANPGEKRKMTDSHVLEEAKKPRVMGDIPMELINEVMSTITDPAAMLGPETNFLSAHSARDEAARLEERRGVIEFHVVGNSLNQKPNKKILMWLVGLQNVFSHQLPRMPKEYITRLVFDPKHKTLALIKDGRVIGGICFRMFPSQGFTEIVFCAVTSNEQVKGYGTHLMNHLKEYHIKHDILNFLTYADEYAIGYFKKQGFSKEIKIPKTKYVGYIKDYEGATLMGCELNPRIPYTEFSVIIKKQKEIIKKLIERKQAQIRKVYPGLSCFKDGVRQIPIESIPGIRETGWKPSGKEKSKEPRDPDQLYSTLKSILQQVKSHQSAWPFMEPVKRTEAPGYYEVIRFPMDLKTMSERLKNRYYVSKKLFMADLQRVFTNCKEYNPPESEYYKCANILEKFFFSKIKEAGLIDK
Also noted: Intact protein LC/MS covalent labelling, fragments in pools of five, 200 uM each, 4 °C. As to conditions: 24 h, 4 °C, pool of five; 200 µM; covalent.

Series [6] deals with T4, NUDT7 (Homo sapiens, UniProt P0C024).
T4 construct: residues 14-235, E. coli, pNIC28-Bsa4, N-terminal His6 tag removed by TEV, construct 26672 Da
T4 sequence (P0C024 14-235): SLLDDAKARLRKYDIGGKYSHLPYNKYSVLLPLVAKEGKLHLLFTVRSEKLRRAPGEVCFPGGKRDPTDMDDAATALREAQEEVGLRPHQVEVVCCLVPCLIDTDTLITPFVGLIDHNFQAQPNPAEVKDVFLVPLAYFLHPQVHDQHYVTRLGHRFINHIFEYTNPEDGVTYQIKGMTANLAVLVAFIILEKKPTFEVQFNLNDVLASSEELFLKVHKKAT
Also noted: Intact protein LC/MS covalent labelling, fragments in pools of five, 200 uM each, 4 °C. As to conditions: 24 h, 4 °C, pool of five; 200 µM; covalent.

Series [7] can be described thus: in vitro. Also noted: species or system HB2, CCD841. As to conditions: human, hek293 cells.

Like-named read-outs stand apart in the source and are kept apart here.

T2 sequence (P02769 whole entry): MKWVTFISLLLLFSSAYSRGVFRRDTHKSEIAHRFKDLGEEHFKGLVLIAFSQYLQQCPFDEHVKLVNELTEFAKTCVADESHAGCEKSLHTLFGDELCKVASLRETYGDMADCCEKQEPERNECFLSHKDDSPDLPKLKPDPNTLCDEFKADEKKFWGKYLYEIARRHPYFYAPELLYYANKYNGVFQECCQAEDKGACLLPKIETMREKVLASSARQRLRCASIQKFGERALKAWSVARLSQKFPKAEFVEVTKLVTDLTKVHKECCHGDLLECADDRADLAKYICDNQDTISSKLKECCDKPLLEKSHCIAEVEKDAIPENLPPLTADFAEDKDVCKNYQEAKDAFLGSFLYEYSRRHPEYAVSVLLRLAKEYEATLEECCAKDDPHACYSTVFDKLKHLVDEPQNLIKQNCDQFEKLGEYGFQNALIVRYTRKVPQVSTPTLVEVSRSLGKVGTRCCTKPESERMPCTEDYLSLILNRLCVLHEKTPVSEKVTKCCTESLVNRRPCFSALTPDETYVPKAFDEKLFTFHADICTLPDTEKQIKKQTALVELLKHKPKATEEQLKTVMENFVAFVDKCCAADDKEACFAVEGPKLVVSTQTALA

Regarding `CN(C(=O)CCl)c1ccc([N+](=O)[O-])cc1` [PCM-0102669], the results for the viability at 48 h, 10 µM in series [1], in series [2] and in series [7] were 17.3%, 12.9% and 10.5%, respectively. Further, in series [3], the OTUB2 was determined as 0. The molecule also yielded a BSA in series [4] of 0. The same molecule yielded a PCAF in series [5] of 0. The NUDT7 in series [6] amounted to 0.14.

Regarding `Cl.O=C(CCl)Nc1ccc(N2CCCC2)cc1` [PCM-0102670], the values for the viability at 48 h, 10 µM in series [1], in series [2] and in series [7] were 41.8%, 35% and 30.3%, respectively. This molecule came in with an OTUB2 in series [3] of 0.48. In series [4], the BSA amounted to 0. In addition, in series [5], the PCAF came to 0. This molecule also returned an NUDT7 in series [6] of 0.

For `O=C(CCl)NCc1ccco1` [PCM-0102671], the values for the viability at 48 h, 10 µM in series [1], in series [2] and in series [7] were 86%, 102% and 86.2%, respectively. This molecule also displayed an OTUB2 in series [3] of 0.35. This molecule came in with a BSA in series [4] of 0. This molecule displayed a PCAF in series [5] of 0. This molecule also registered an NUDT7 in series [6] of 0.

Take `CN(Cc1ccco1)C(=O)CCl` [PCM-0102672]: the viability at 48 h, 10 µM came out at 78.1% in series [1], 51.9% in series [2] and 49.1% in series [7]. The molecule also yielded an OTUB2 in series [3] of 0. In series [4], this molecule gave a BSA of 0. The molecule also showed a PCAF in series [5] of 0. The molecule also came in with an NUDT7 in series [6] of 0.1.

`CN(CC(F)(F)F)C(=O)CCl` [PCM-0102674]: the viability at 48 h, 10 µM in series [1] was determined as 105%; in series [2], 101%; in series [7], 101%. For the same molecule, the OTUB2 in series [3] is recorded as 0. This molecule also returned a BSA in series [4] of 0. Besides, in series [5], the PCAF came out at 0. Besides, in series [6], the NUDT7 stood at 0.11.

For the molecule `O=C(CCl)N1CCCC(C(F)(F)F)C1` (stereo not drawn) [PCM-0102676], the viability at 48 h, 10 µM in series [1] was determined as 88.5%; in series [2], 44.7%; in series [7], 54.4%. In series [3], this molecule showed an OTUB2 of 0. The molecule also came in with a BSA in series [4] of 0. Also, in series [5], the PCAF is 0. The molecule further came in with an NUDT7 in series [6] of 0.14.

On to `C=CC(=O)N1CC(O)CC1c1ccccc1C(F)(F)F` (stereo not drawn) [PCM-0102677], for which the viability at 48 h, 10 µM was 108% in series [1], 98.4% in series [2] and 109% in series [7]. The same molecule returned an OTUB2 in series [3] of 0. The same molecule had a BSA in series [4] of 0. In series [5], this molecule registered a PCAF of 0. This molecule gave an NUDT7 in series [6] of 0.

For the molecule `CN(Cc1cc(Cl)cc(Cl)c1)C(=O)CCl` [PCM-0102678], the viability at 48 h, 10 µM in series [1] was determined as 22%; in series [2] it was 8.3%; in series [7] it was 22%. The OTUB2 in series [3] is 0. In series [4], this molecule came in with a BSA of 0. Moreover, the PCAF in series [5] was 0. The NUDT7 in series [6] was 0.45.

Regarding `C=CC(=O)N1Cc2c(OC)ccc(OC)c2C(O)C1` (stereo not drawn) [PCM-0102680], the viability at 48 h, 10 µM in series [1] was 135%; in series [2] it was 104%; in series [7], 119%. In series [3], this molecule yielded an OTUB2 of 0.08. This molecule also gave a BSA in series [4] of 0.1. For the same molecule, the PCAF in series [5] amounted to 0. The molecule further displayed an NUDT7 in series [6] of 0.

`C=CC(=O)N1CCN(C(=O)C23CC4CC(CC(C4)C2)C3)CC1` [PCM-0102682]: the viability at 48 h, 10 µM in series [1] came out at 103%; in series [2], 102%; in series [7], 72.7%. Also, the OTUB2 in series [3] is recorded as 0. The molecule also had a BSA in series [4] of 0. The same molecule displayed a PCAF in series [5] of 0. Further, the NUDT7 in series [6] is 0.

On to `C=CC(=O)N1CCCC1c1cc(C)on1` (stereo not drawn) [PCM-0102683], for which the viability at 48 h, 10 µM in series [1] amounted to 101%; in series [2], 103%; in series [7] it was 121%. In series [3], this molecule had an OTUB2 of 0.12. Further, in series [4], the BSA amounted to 0. Also, in series [5], the PCAF is 0. Moreover, in series [6], the NUDT7 was 0.

For the molecule `C=CC(=O)N1CC(OC(=O)Nc2cccc(F)c2)C1` [PCM-0102688], the viability at 48 h, 10 µM in series [1] stood at 99%; in series [2], 82.3%; in series [7], 95.8%. In series [3], the OTUB2 turned out to be 0.17. This molecule came in with a BSA in series [4] of 0. Also, in series [5], the PCAF was determined as 0. The same molecule returned an NUDT7 in series [6] of 0.

With `C=CC(=O)N1CCCC(c2nc(-c3cccc(F)c3)no2)C1` (stereo not drawn) [PCM-0102689], the viability at 48 h, 10 µM was 97.4% in series [1], 101% in series [2] and 89.4% in series [7]. The molecule further registered an OTUB2 in series [3] of 0. The BSA in series [4] is on record as 0. Further, the PCAF in series [5] stood at 0. For the same molecule, the NUDT7 in series [6] amounted to 0.

`C=CC(=O)N1CCC2(CC1)CNC(=O)C2` [PCM-0102690]: the viability at 48 h, 10 µM in series [1] was 107%; in series [2] it was 100%; in series [7], 95.1%. Further, in series [3], the OTUB2 is on record as 0. The molecule also gave a BSA in series [4] of 0. Further, in series [5], the PCAF is on record as 0. In series [6], this molecule returned an NUDT7 of 0.

For the molecule `C=CC(=O)NCC1(O)CCS(=O)(=O)CC1` [PCM-0102691], the viability at 48 h, 10 µM amounted to 104% in series [1], 104% in series [2] and 103% in series [7]. The molecule also came in with an OTUB2 in series [3] of 0.2. The molecule also came in with a BSA in series [4] of 0. In series [5], the PCAF worked out at 0. For the same molecule, the NUDT7 in series [6] is given as 0.

Consider `O=C(CCl)N1CCCC1c1ccsc1` (stereo not drawn) [PCM-0102693], for which the viability at 48 h, 10 µM in series [1] is 37.7%; in series [2] it was 11.7%; in series [7] it was 4.6%. Also, the OTUB2 in series [3] is on record as 0. This molecule also yielded a BSA in series [4] of 0. Also, the PCAF in series [5] stood at 0. In series [6], the NUDT7 came out at 0.2.

As to `O=C(CCl)NC(=O)c1cccc2ccccc12` [PCM-0102694], the viability at 48 h, 10 µM in series [1] worked out at 112%; in series [2] it was 101%; in series [7] it was 111%. In series [3], this molecule had an OTUB2 of 0. Moreover, the BSA in series [4] is on record as 0. This molecule also yielded a PCAF in series [5] of 0. In series [6], this molecule came in with an NUDT7 of 0.

In the case of `C=CC(=O)Nc1nc2ccccc2s1` [PCM-0102695], the viability at 48 h, 10 µM turned out to be 50.3% in series [1], 33.8% in series [2] and 51.9% in series [7]. This molecule returned an OTUB2 in series [3] of 0. The molecule also returned a BSA in series [4] of 0. This molecule showed a PCAF in series [5] of 0. Moreover, in series [6], the NUDT7 stood at 0.18.

As to `O=C(CCl)Nc1cccc(C(=O)O)c1` [PCM-0102696], the results for the viability at 48 h, 10 µM in series [1], in series [2] and in series [7] were 86.9%, 90.3% and 84.6%, respectively. This molecule gave an OTUB2 in series [3] of 0.11. In series [4], this molecule yielded a BSA of 0. Moreover, in series [5], the PCAF came out at 0. The molecule also came in with an NUDT7 in series [6] of 0.

Regarding `CC1CC(=O)Nc2ccccc2N1C(=O)CCl` (stereo not drawn) [PCM-0102697], the viability at 48 h, 10 µM in series [1] was determined as 62.6%; in series [2], 83.7%; in series [7] it was 52.8%. The OTUB2 in series [3] was found to be 0. In addition, the BSA in series [4] was determined as 0. Besides, in series [5], the PCAF is given as 0. In addition, the NUDT7 in series [6] is 0.22.

For `O=C(CCl)Nc1nc2ccccc2s1` [PCM-0102698], the viability at 48 h, 10 µM came out at 77.5% in series [1], 64.2% in series [2] and 65.6% in series [7]. Besides, the OTUB2 in series [3] was found to be 0.07. The BSA in series [4] came to 0. Moreover, the PCAF in series [5] is listed as 0. Further, the NUDT7 in series [6] stood at 0.83.

For `Cc1cc(NC(=O)CCl)n(-c2ccccc2C)n1` [PCM-0102699], the viability at 48 h, 10 µM was 81.6% in series [1], 58.9% in series [2] and 36.9% in series [7]. In series [3], this molecule displayed an OTUB2 of 0. In addition, the BSA in series [4] was found to be 0. In series [5], the PCAF amounted to 0. In series [6], the NUDT7 amounted to 0.

On to `N#Cc1ccc(Cl)cc1NC(=O)CCl` [PCM-0102700], for which the figures for the viability at 48 h, 10 µM in series [1], in series [2] and in series [7] were 68.1%, 57.6% and 64.8%, respectively. The same molecule gave an OTUB2 in series [3] of 0.17. This molecule also gave a BSA in series [4] of 0. The molecule also returned a PCAF in series [5] of 0. This molecule displayed an NUDT7 in series [6] of 0.4.

Take `C=CC(=O)N1CCC(S(=O)(=O)N2CCCC2)C1` (stereo not drawn) [PCM-0102701]: the viability at 48 h, 10 µM in series [1] was determined as 95.6%; in series [2] it was 97.8%; in series [7] it was 85.2%. In series [3], this molecule had an OTUB2 of 0. The molecule also came in with a BSA in series [4] of 0.12. The PCAF in series [5] came out at 0. In series [6], this molecule had an NUDT7 of 0.

Usually viability stands for a read-out of living cells in per cent, often relative to untreated cells.
